# Where a name gives a salt, the structure may show the parent alone. Read-outs that look alike come from different tables or passages of the source.
# Key:
# Assay in all cases: AK assay 384-well format, Prestwick library screening
# E. faecium = format: cell-based, Enterococcus faecium; conditions: for fold induction at 50 µM: Enterococcus faecium, 3 h
# [1] = tested on: S. aureus strain USA300-0114; format: cell-based, Staphylococcus aureus; conditions: for fold induction at 50 µM: Staphylococcus aureus, USA300, 3 h
# K. pneumoniae = format: cell-based, Klebsiella pneumoniae; conditions: for fold induction at 50 µM: Klebsiella pneumoniae, 3 h
# [2] = tested on: A. baumannii strain 98-37-09; format: cell-based, Acinetobacter baumannii; conditions: for fold induction at 50 µM: Acinetobacter baumannii, 983709, 3 h
# P. aeruginosa = format: cell-based, Pseudomonas aeruginosa; conditions: for fold induction at 50 µM: Pseudomonas aeruginosa, 3 h
# E. cloacae = format: cell-based, Enterobacter cloacae; conditions: for fold induction at 50 µM: Enterobacter cloacae, 3 h
# E. coli = format: cell-based, Escherichia coli; conditions: for fold induction at 50 µM: Escherichia coli, 3 h
# [3] = planktonic E. faecium, 50 μM final drug concentration, cutoff for positive-scoring molecules 3-fold increase, read-out: AK-based Prestwick Library Screening Results, E. faecium (increase in extracellular AK activity)
# [4] = planktonic K. pneumoniae, 50 μM final drug concentration, cutoff for positive-scoring molecules 3-fold increase, read-out: AK-based Prestwick Library Screening Results, K. pneumoniae (increase in extracellular AK activity)
# [5] = planktonic A. baumannii, 50 μM final drug concentration, cutoff for positive-scoring molecules 3-fold increase, read-out: AK-based Prestwick Library Screening Results, A. baumannii (increase in extracellular AK activity)
# [6] = planktonic P. aeruginosa, 50 μM final drug concentration, cutoff for positive-scoring molecules 3-fold increase, read-out: AK-based Prestwick Library Screening Results, P. aeruginosa (increase in extracellular AK activity)
# [7] = planktonic E. cloacae, 50 μM final drug concentration, cutoff for positive-scoring molecules 3-fold increase, read-out: AK-based Prestwick Library Screening Results, E. cloacae (increase in extracellular AK activity)
# [8] = 50 μM final drug concentration, cutoff for positive-scoring molecules 3-fold increase, read-out: AK-based Prestwick Library Screening Results, E. faecium (fold increase in extracellular AK activity)
# [9] = 50 μM final drug concentration, cutoff for positive-scoring molecules 3-fold increase, read-out: AK-based Prestwick Library Screening Results, K. pneumoniae (fold increase in extracellular AK activity)
# [10] = 50 μM final drug concentration, cutoff for positive-scoring molecules 3-fold increase, read-out: AK-based Prestwick Library Screening Results, A. baumannii (fold increase in extracellular AK activity)
# [11] = 50 μM final drug concentration, cutoff for positive-scoring molecules 3-fold increase, read-out: AK-based Prestwick Library Screening Results, P. aeruginosa (fold increase in extracellular AK activity)
# [12] = 50 μM final drug concentration, cutoff for positive-scoring molecules 3-fold increase, read-out: AK-based Prestwick Library Screening Results, E. cloacae (fold increase in extracellular AK activity)
# [13] = 50 μM final drug concentration, cutoff for positive-scoring molecules 3-fold increase, read-out: AK-based Prestwick Library Screening Results, E. coli (fold increase in extracellular AK activity)
molecule,measurement,setting,value
Cyanocobalamin,"AK-based Prestwick Library Screening Results, E. faecium (increase in extracellular AK activity)","E. faecium; planktonic E. faecium, 50 μM final drug concentration, cutoff for positive-scoring molecules 3-fold increase",0.8
same,"AK-based Prestwick Library Screening Results, S. aureus (increase in extracellular AK activity)","[1]; planktonic S. aureus, 50 μM final drug concentration, cutoff for positive-scoring molecules 3-fold increase",0.5
same,"AK-based Prestwick Library Screening Results, K. pneumoniae (increase in extracellular AK activity)","K. pneumoniae; planktonic K. pneumoniae, 50 μM final drug concentration, cutoff for positive-scoring molecules 3-fold increase",0.6
same,"AK-based Prestwick Library Screening Results, A. baumannii (increase in extracellular AK activity)","[2]; planktonic A. baumannii, 50 μM final drug concentration, cutoff for positive-scoring molecules 3-fold increase",0.8
same,"AK-based Prestwick Library Screening Results, P. aeruginosa (increase in extracellular AK activity)","P. aeruginosa; planktonic P. aeruginosa, 50 μM final drug concentration, cutoff for positive-scoring molecules 3-fold increase",0.7
same,"AK-based Prestwick Library Screening Results, E. cloacae (increase in extracellular AK activity)","E. cloacae; planktonic E. cloacae, 50 μM final drug concentration, cutoff for positive-scoring molecules 3-fold increase",1.2
same,"AK-based Prestwick Library Screening Results, E. coli (increase in extracellular AK activity)","E. coli; planktonic E. coli, 50 μM final drug concentration, […]",0.8
O=c1cc(-c2ccc(O)cc2)oc2cc(O)cc(O)c12 [Apigenin],fold induction at 50 µM,E. faecium; [3],0.3
same,fold induction at 50 µM,K. pneumoniae; [4],0.2
same,fold induction at 50 µM,[2]; [5],0.2
same,fold induction at 50 µM,P. aeruginosa; [6],0.2
same,fold induction at 50 µM,E. cloacae; [7],0.5
same,fold induction at 50 µM,"E. coli; planktonic E. coli, 50 μM final drug concentration, cutoff for positive-scoring molecules 3-fold increase, read-out: AK-based Prestwick Library Screening Results, E. coli (increase in extracellular AK activity)",0.2
CCCCC(CC)CNC(=N)NC(=N)NCCCCCCNC(=N)NC(=N)NCC(CC)CCCC (centres unmarked) [Alexidine dihydrochloride],fold induction at 50 µM,E. faecium; [8],7.4
same,fold induction at 50 µM,K. pneumoniae; [9],23.4
same,fold induction at 50 µM,[2]; [10],12.3
same,fold induction at 50 µM,P. aeruginosa; [11],19.2
same,fold induction at 50 µM,E. cloacae; [12],1.5
same,fold induction at 50 µM,E. coli; [13],43.3
O=C(O)CCCC[C@@H]1SC[C@@H]2NC(=O)N[C@@H]21 [Biotin],fold induction at 50 µM,E. faecium; [3],0.9
same,fold induction at 50 µM,"[1]; planktonic S. aureus, 50 μM final drug concentration, cutoff for positive-scoring molecules 3-fold increase, read-out: AK-based Prestwick Library Screening Results, S. aureus (increase in extracellular AK activity)",1.4
same,fold induction at 50 µM,K. pneumoniae; [4],0.6
same,fold induction at 50 µM,[2]; [5],0.8
same,fold induction at 50 µM,P. aeruginosa; [6],0.7
same,fold induction at 50 µM,E. cloacae; [7],0.8
"[H]/N=C(\N/C(=N/[H])NCCCCCCNC(=N)NC(=N)Nc1ccc(Cl)cc1)Nc1ccc(Cl)cc1 [Chlorhexidine, chlorhexidine, reference compound]",fold induction at 50 µM,"E. faecium; planktonic E. faecium, 50 μM final drug concentration, 384-well, cutoff for positive-scoring molecules 3-fold increase, read-out: AK-based Prestwick Library Screening Results: E. faecium (increase in extracellular AK activity)",4
same,fold induction at 50 µM,"K. pneumoniae; planktonic K. pneumoniae, 50 μM final drug concentration, 384-well, cutoff for positive-scoring molecules 3-fold increase, read-out: AK-based Prestwick Library Screening Results: K. pneumoniae (increase in extracellular AK activity)",18.8
same,fold induction at 50 µM,"[2]; planktonic A. baumannii, 50 μM final drug concentration, 384-well, cutoff for positive-scoring molecules 3-fold increase, read-out: AK-based Prestwick Library Screening Results: A. baumannii (increase in extracellular AK activity)",12.3
same,fold induction at 50 µM,"P. aeruginosa; planktonic P. aeruginosa, 50 μM final drug concentration, 384-well, cutoff for positive-scoring molecules 3-fold increase, read-out: AK-based Prestwick Library Screening Results: P. aeruginosa (increase in extracellular AK activity)",23.8
same,fold induction at 50 µM,"E. cloacae; planktonic E. cloacae, 50 μM final drug concentration, 384-well, cutoff for positive-scoring molecules 3-fold increase, read-out: AK-based Prestwick Library Screening Results: E. cloacae (increase in extracellular AK activity)",1.8
same,fold induction at 50 µM,"E. coli; planktonic E. coli, 50 μM final drug concentration, 384-well, cutoff for positive-scoring molecules 3-fold increase, read-out: AK-based Prestwick Library Screening Results: E. coli (increase in extracellular AK activity)",50.1
O=C(NCCNCC(O)COc1ccc(O)cc1)N1CCOCC1 (centres unmarked) [Xamoterol hemifumarate],fold induction at 50 µM,"E. faecium; read-out: AK-based Prestwick Library Screening Results, E. faecium (fold increase in extracellular AK activity)",1
same,fold induction at 50 µM,"[1]; read-out: AK-based Prestwick Library Screening Results, S. aureus (fold increase in extracellular AK activity)",1.1
same,fold induction at 50 µM,"K. pneumoniae; read-out: AK-based Prestwick Library Screening Results, K. pneumoniae (fold increase in extracellular AK activity)",0.8
same,fold induction at 50 µM,"[2]; read-out: AK-based Prestwick Library Screening Results, A. baumannii (fold increase in extracellular AK activity)",1
same,fold induction at 50 µM,"P. aeruginosa; read-out: AK-based Prestwick Library Screening Results, P. aeruginosa (fold increase in extracellular AK activity)",1.2
same,fold induction at 50 µM,"E. cloacae; read-out: AK-based Prestwick Library Screening Results, E. cloacae (fold increase in extracellular AK activity)",1.8
NNc1nncc2ccccc12 [Hydralazine hydrochloride],fold induction at 50 µM,"E. faecium; 50 μM final drug concentration, 384-well format, cutoff for positive-scoring molecules 3-fold increase, read-out: AK-based Prestwick Library Screening Results, E. faecium (increase in extracellular AK activity)",0.3
same,fold induction at 50 µM,"[1]; 50 μM final drug concentration, 384-well format, cutoff for positive-scoring molecules 3-fold increase, read-out: AK-based Prestwick Library Screening Results, S. aureus (increase in extracellular AK activity)",0.2
same,fold induction at 50 µM,"[2]; 50 μM final drug concentration, 384-well format, cutoff for positive-scoring molecules 3-fold increase, read-out: AK-based Prestwick Library Screening Results, A. baumannii (increase in extracellular AK activity)",0.1
same,fold induction at 50 µM,"E. cloacae; 50 μM final drug concentration, 384-well format, cutoff for positive-scoring molecules 3-fold increase, read-out: AK-based Prestwick Library Screening Results, E. cloacae (increase in extracellular AK activity)",0.3
CN[C@H](CC(C)C)C(=O)N[C@H]1C(=O)N[C@@H](CC(N)=O)C(=O)N[C@H]2C(=O)N[C@H]3C(=O)N[C@H](C(=O)N[C@H](C(=O)O)c4cc(O)cc(O)c4-c4cc3ccc4O)[C@H](O)c3ccc(c(Cl)c3)Oc3cc2cc(c3O[C@@H]2O[C@H](CO)[C@@H](O)[C@H](O)[C@H]2O[C@H]2C[C@](C)(N)[C@H](O)[C@H](C)O2)Oc2ccc(cc2Cl)[C@H]1O [Vancomycin hydrochloride],fold induction at 50 µM,"E. faecium; read-out: AK-based Prestwick Library Screening Results, E. faecium (increase in extracellular AK activity)",1.5
same,fold induction at 50 µM,"K. pneumoniae; read-out: AK-based Prestwick Library Screening Results, K. pneumoniae (increase in extracellular AK activity)",0.8
same,fold induction at 50 µM,"[2]; read-out: AK-based Prestwick Library Screening Results, A. baumannii (increase in extracellular AK activity)",1.1
same,fold induction at 50 µM,"P. aeruginosa; read-out: AK-based Prestwick Library Screening Results, P. aeruginosa (increase in extracellular AK activity)",0.9
same,fold induction at 50 µM,"E. cloacae; read-out: AK-based Prestwick Library Screening Results, E. cloacae (increase in extracellular AK activity)",0.9
same,fold induction at 50 µM,"E. coli; read-out: AK-based Prestwick Library Screening Results, E. coli (increase in extracellular AK activity)",1.2
COc1cc(NC(C)CCCN)c2ncccc2c1 (centres unmarked) [Primaquine diphosphate],fold induction at 50 µM,"E. faecium; 50 μM final drug concentration, planktonic, cutoff for positive 3-fold increase, read-out: AK-based Prestwick Library Screening Results, E. faecium (fold increase in extracellular AK activity)",0.9
same,fold induction at 50 µM,"[1]; 50 μM final drug concentration, planktonic, cutoff for positive 3-fold increase, read-out: AK-based Prestwick Library Screening Results, S. aureus (fold increase in extracellular AK activity)",2.1
same,fold induction at 50 µM,"K. pneumoniae; 50 μM final drug concentration, planktonic, cutoff for positive 3-fold increase, read-out: AK-based Prestwick Library Screening Results, K. pneumoniae (fold increase in extracellular AK activity)",1
same,fold induction at 50 µM,"[2]; 50 μM final drug concentration, planktonic, cutoff for positive 3-fold increase, read-out: AK-based Prestwick Library Screening Results, A. baumannii (fold increase in extracellular AK activity)",1.1
same,fold induction at 50 µM,"P. aeruginosa; 50 μM final drug concentration, planktonic, cutoff for positive 3-fold increase, read-out: AK-based Prestwick Library Screening Results, P. aeruginosa (fold increase in extracellular AK activity)",1
same,fold induction at 50 µM,"E. cloacae; 50 μM final drug concentration, planktonic, cutoff for positive 3-fold increase, read-out: AK-based Prestwick Library Screening Results, E. cloacae (fold increase in extracellular AK activity)",1.4
CCCCCCCCCCCCCCCC[N+](C)(C)CCN(Cc1ccc(OC)cc1)c1ncccn1 [Thonzonium bromide],fold induction at 50 µM,E. faecium; [8],7.5
same,fold induction at 50 µM,K. pneumoniae; [9],4.7
same,fold induction at 50 µM,[2]; [10],5.6
same,fold induction at 50 µM,P. aeruginosa; [11],1.5
same,fold induction at 50 µM,E. cloacae; [12],1.8
same,fold induction at 50 µM,E. coli; [13],3.2
CS(=O)(=O)c1ccc([C@@H](O)[C@@H](CF)NC(=O)C(Cl)Cl)cc1 [Florfenicol],fold induction at 50 µM,E. faecium; [8],1
same,fold induction at 50 µM,K. pneumoniae; [9],0.3
same,fold induction at 50 µM,[2]; [10],1.2
same,fold induction at 50 µM,P. aeruginosa; [11],1.4
same,fold induction at 50 µM,E. cloacae; [12],1.4
same,fold induction at 50 µM,"E. coli; 50 μM final drug concentration, […], read-out: AK-based Prestwick Library Screening Results, E. coli (fold increase in extracellular AK activity)",1.2
